In patent publication US9399635B2, “Pyrazole derivative” (GREEN TECH CO., LTD., priority 2011, dated 2016):
Like-named read-outs stand apart in the source and are kept apart here.

Tests used:
[1] = Evaluation of in vivo pharmacokinetics (blood and brain concentrations, LC-MS/MS); settings: male, rat, SD rats, brain
Experimental: Pharmacological test example 4: Evaluation of in vivo pharmacokinetics
To SD rats (male, 7 weeks old), the test compound was orally administered (p. o.) at an amount of 50 mg/kg bw or intravenously administered (i.v.) at an amount of 1 mg/kg bw and the concentrations in the blood and brain were measured up to 3 hours. The administration vehicle was an 80% PEG 400 aqueous solution. The blood was collected under isoflurane inhalational anesthesia and the brain was harvested after the rats were sacrificed. The plasma was separated from the blood. The brain was homogenized after addition of a three-fold volume of PBS and then methanol was added thereto. Thus the prepared test samples were subjected to measurement. The measurement was performed by LC-MS/MS (Applied Biosystems and Waters).
The blood concentration changes of the compounds of Example 2 and Example 2 (2) ((1E,6E)-1-(1H-indol-6-yl)-7-[2-methoxy-4-(2-pyridylmethoxy)phenyl]hepta-1,6-diene-3,5-dione) after oral administration (p.o.) thereof are shown in FIG. 2. The brain concentration changes of the compounds after intravenous administration (i.v.) and oral administration (p.o.) thereof are shown in Table 2.

[2] = target: recombinant three-repeat microtubule-binding domain (3R-MBD) of tau protein (Homo sapiens, UniProt P10636); assay: Determination of tau aggregation inhibitory activity (heparin-induced, thioflavin T fluorescence; electron microscope); type: biochemical; settings: for IC50: 3R-MBD tau 10 μM, heparin 10 μM, 37° C. for 16 hours, thioflavin T, read-out: IC50 (μM) Test example 1 (tau aggregation inhibitory activity); for tau aggregation inhibitory activity at 1 μM: compound at 1 μM
Experimental: Pharmacological Test Example 1: Determination of Tau Aggregation Inhibitory Activity
A recombinant three-repeat microtubule-binding domain (3R-MBD) of tau protein was expressed in E. coli and was purified and used for the experiment. The purified tau solution was diluted with a 50 mM Tris-HCl buffer (pH 7.6) to a final concentration of 10 μM. The test compounds were prepared using dimethylsulfoxide (DMSO) at 20-fold of their final concentrations and added to the plate so that the DMSO concentration would be 5%. Heparin was added to the plate so that the final concentration would be 10 μM and the plate was left to stand at 37° C. for 16 hours. Thioflavin T was added to the plate so that the concentration would be 10 μM and the fluorescence intensity was measured with a fluorescence plate reader (PerkinElmer, Inc.) (excitation wavelength: 440 nm; emission wavelength: 480 nm).
(§1) The final concentration of each compound at the time of measurement was set at 0.1, 0.3, 1, 3, and 10 μM. The sample to which only DMSO was added was used as a negative control and its fluorescence intensity was taken as 0% inhibitory activity.
The samples were placed on a grid and washed with distilled water. A 1 mM phosphotungstic acid aqueous solution was added to the samples. The samples were washed, dried overnight, and observed.

[3] = target: T1, recombinant human β-secretase (Homo sapiens, UniProt P56817); assay: Determination of β-secretase inhibitory activity (BACE-1 FRET assay Kit); type: biochemical; settings: for IC50: recombinant human β-secretase, fluorescent substrate peptide, 1 hour, read-out: IC50 (μM) Test example 2 (β-secretase inhibitory activity); for inhibition at 1 µM: compound at 1 μM
T1 construct: purchased Invitrogen
Experimental: Pharmacological Test Example 2: Determination of β-Secretase Inhibitory Activity
The β-secretase inhibitory activity was measured with BACE-1 FRET assay Kit (Invitrogen). The test compounds were prepared using DMSO at 30-fold of their final concentrations and dissolved so that the DMSO concentration would be 10%. To each of the solutions, an equal volume of a recombinant human β-secretase (1 U/mL) dissolved in the assay buffer and an equal volume of fluorescent substrate peptide (2.5 nM) were added and the solutions were left to stand for 1 hour. The fluorescence intensity was measured with a fluorescence plate reader (excitation wavelength: 545 nm; emission wavelength: 590 nm).
The final concentration of each compound at the time of measurement was set at 0.1, 0.3, 1, 3, and 10 μM, at 0.3, 1, 3, 10, and 30 μM, or at 1, 3, 10, 30, and 100 μM.

[4] = target: T2, Aβ 1-42 (Homo sapiens, UniProt P05067); assay: Determination of Aβ aggregation inhibitory activity (thioflavin T fluorescence); type: biochemical; settings: for IC50: Aβ 1-42, 37° C. for 24 hours, thioflavin T, read-out: IC50 (μM) Test example 3 (Aβ aggregation inhibitory activity)
T2 construct: Aβ 1-42 (Peptide Institute, Inc.) was dissolved in 0.3% ammonia water; purchased Peptide Institute, Inc
Experimental: Pharmacological test example 3: Determination of Aβ aggregation inhibitory activity
Aβ 1-42 (Peptide Institute, Inc.) was dissolved in 0.3% ammonia water so that the concentration would be 0.5 mM and then diluted with PBS to 20 μM. The test compounds were prepared using DMSO at 100-fold of their final concentrations and adjusted so that the DMSO concentration would be 2%. The Aβ solution and each of the test compound solutions were mixed at an equivalent ratio and the mixtures were incubated at 37° C. for 24 hours. To each of the mixtures, an equal volume of a thioflavin T solution adjusted with a 100 mM Tris-glycine buffer (pH 8.5) to 6 μM was added. The fluorescence intensity was measured with a fluorescence plate reader (excitation wavelength: 440 nm; emission wavelength: 480 nm).
as §1

T2 sequence (P05067 672-713): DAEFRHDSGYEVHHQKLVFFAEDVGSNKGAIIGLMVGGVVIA
Chain of recombinant three-repeat microtubule-binding domain (3R-MBD) of tau protein (P10636 186-279 isoform P10636-2 limits assumed): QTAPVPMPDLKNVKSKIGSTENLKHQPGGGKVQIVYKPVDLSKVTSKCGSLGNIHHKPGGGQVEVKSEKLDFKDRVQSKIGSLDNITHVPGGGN
T1 sequence (P56817 46-501): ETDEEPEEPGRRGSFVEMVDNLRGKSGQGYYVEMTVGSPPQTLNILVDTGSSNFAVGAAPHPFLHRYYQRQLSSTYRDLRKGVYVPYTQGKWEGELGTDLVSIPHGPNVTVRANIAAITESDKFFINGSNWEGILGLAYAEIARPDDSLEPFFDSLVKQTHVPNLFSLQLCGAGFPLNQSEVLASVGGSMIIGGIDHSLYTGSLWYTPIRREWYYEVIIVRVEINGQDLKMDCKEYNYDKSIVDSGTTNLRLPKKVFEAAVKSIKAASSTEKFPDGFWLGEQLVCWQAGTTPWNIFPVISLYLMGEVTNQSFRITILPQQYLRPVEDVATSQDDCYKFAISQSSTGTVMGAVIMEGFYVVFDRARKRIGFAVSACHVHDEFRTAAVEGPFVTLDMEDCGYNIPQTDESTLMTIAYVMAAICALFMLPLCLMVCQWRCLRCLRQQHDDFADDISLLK

COc1cc(OCc2ccccn2)ccc1/C=C/C(=O)CC(=O)/C=C/c1ccc2cc[nH]c2c1 [Example 2 (2), (1E,6E)-1-(1H-indol-6-yl)-7-[2-methoxy-4-(2-pyridylmethoxy)phenyl]hepta-1,6-diene-3,5-dione]
concentration at 5 min ([1]; intravenous 1 mg/kg bw, 5 min, read-out: brain concentration i.v. 5 min): 5.15 ± 3.34 ng/mL
concentration at 180 min ([1]; intravenous 1 mg/kg bw, read-out: brain concentration i.v. 180 min): 0.93 ± 0.67 ng/mL
concentration at 60 min ([1]; oral 50 mg/kg bw, 60 min, read-out: brain concentration p.o. 60 min): 0 ng/mL
concentration at 180 min ([1]; oral 50 mg/kg bw, read-out: brain concentration p.o. 180 min): 18 ± 30.8 ng/mL

CN1CCN(c2ccc(/C=C/c3cc(/C=C/c4ccc5cc[nH]c5c4)[nH]n3)cc2)CC1 [Example 102, 5-[(1E)-2-(1H-indol-6-yl)ethenyl]-3-[(1E)-2-[4-(4-methylpiperazin-1-yl)phenyl]ethenyl]-1H-pyrazole]
IC50 [2]: 1.46 µM
IC50 [3]: 1.06 µM
melting point: 192 to 198 °C
IC50 [4]: 4.33 µM

COc1cc(OCc2ccccn2)ccc1/C=C/c1cc(/C=C/c2ccc(OCc3ccccn3)cc2OC)[nH]n1 [Example 110, 3,5-bis[(1E)-2-[2-methoxy-4-(2-pyridylmethoxy)phenyl]ethenyl]-1H-pyrazole]
tau aggregation inhibitory activity at 1 μM [2]: 0%
inhibition at 1 µM [3]: 12%
melting point: 195 to 197 °C
IC50 [4]: 1.9 µM

COc1cc(OCc2ccccn2)ccc1/C=C/c1cc(/C=C/c2ccc(O)c(N)c2)[nH]n1 [Example 111, 3-[(1E)-2-[2-methoxy-4-(2-pyridylmethoxy)phenyl]ethenyl]-5-[(1E)-2-(3-amino-4-hydroxy-phenyl)ethenyl]-1H-pyrazole]
IC50 [2]: 1.46 µM
IC50 [3]: 2.89 µM
melting point: 123 to 126 °C
IC50 [4]: 5.05 µM

C(=C\c1cc(/C=C/c2ccc3cc[nH]c3c2)[nH]n1)/c1ccc2cc[nH]c2c1 [Example 112, 3,5-bis[(1E)-2-(1H-indol-6-yl)ethenyl]-1H-pyrazole]
tau aggregation inhibitory activity at 1 μM [2]: 24%
inhibition at 1 µM [3]: 30%
melting point: 289 to 291 °C
IC50 [4]: 2.8 µM
inhibition at 3 µM ([4]; compound at 3 μM): 17%
